# Data: ChEMBL document CHEMBL3352740, “Pyrrolopyrimidine Analogues as MKNK Inhibitors” (ACS Med Chem Lett, 2015)
# Target: MAP kinase-interacting serine/threonine-protein kinase 1 (Homo sapiens, UniProt Q9BUB5)
# Experiment: Inhibition of human full-length MKNK1 using biotin-Ahx-IKKRKLTRRKSLKG substrate by TR-FRET-based high ATP assay
# MAP kinase-interacting serine/threonine-protein kinase 1, sequence (Q9BUB5 whole entry): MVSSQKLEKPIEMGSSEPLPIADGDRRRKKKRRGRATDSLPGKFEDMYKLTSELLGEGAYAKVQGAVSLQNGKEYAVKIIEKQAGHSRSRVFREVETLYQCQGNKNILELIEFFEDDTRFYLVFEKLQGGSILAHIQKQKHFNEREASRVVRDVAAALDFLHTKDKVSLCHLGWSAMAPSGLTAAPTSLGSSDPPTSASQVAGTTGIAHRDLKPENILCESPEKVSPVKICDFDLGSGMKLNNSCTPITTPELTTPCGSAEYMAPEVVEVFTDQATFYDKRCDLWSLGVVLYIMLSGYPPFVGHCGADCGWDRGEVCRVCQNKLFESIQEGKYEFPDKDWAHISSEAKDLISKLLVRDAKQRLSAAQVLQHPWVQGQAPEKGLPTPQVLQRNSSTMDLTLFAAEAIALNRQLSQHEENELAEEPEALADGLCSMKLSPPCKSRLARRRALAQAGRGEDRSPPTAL
row,SMILES,IC50
1,COc1cc(Cl)c(Cl)cc1Nc1ncnc2[nH]c3c(c12)CC(C(=O)NC1CC1)CC3 (stereo unspecified),6 nM
2,CC(C)Oc1cc2[nH]ncc2cc1Nc1ncnc2[nH]c3c(c12)CCCC3,5 nM
3,CC(C)Oc1cc2[nH]ncc2cc1Nc1ncnc2[nH]c3c(c12)CC(C(=O)NCCCS(C)(=O)=O)CC3 (stereo unspecified),1 nM

# Second part, the molecule after the results:
row,IC50,SMILES
1,6 nM,CCNC(=O)C1CCc2[nH]c3ncnc(Nc4cc5cn[nH]c5cc4OC)c3c2C1 (stereo unspecified)
2,1 nM,COc1cc2[nH]ncc2cc1Nc1ncnc2[nH]c3c(c12)CC(C(=O)NCc1ccccc1)CC3 (stereo unspecified)
3,3540 nM,O=C1OCCOc2cc(F)ccc2Nc2ncnc3[nH]c4c(c23)CC1CC4 (stereo unspecified)
